Target: T1, human CH24H (Homo sapiens, UniProt Q9Y6A2)
T1 construct: Using Full-Length Mammalian Gene Collection No. 4819975 (Invitrogen) as a template; made in house; host or cells: FreeStyle 293-F cells (transient transfection); cell lysate supernatant, not purified
Assay: Measurement of CH24H inhibitory activity (24-HC produced from [14C] cholesterol by human CH24H lysate)
Type: biochemical
Conditions: test compound 1 μM, [14C] cholesterol 15 μM, 37° C., 5 hr, read-out: Inhibitory Rate (%) in 1 μM
Experimental: The expression of human CH24H was performed using FreeStyle 293 Expression System (Invitrogen). According to the manual attached to FreeStyle 293 Expression System and using the plasmid DNA for human CH24H expression (pcDNA3.1(+)/hCH24H) constructed in Experimental Example 1, a transient expression using FreeStyle 293-F cell was performed. After transfection, the cells were cultured at 37° C., 8% CO2 with shaking at 125 rpm for 2 days. The cells were collected by centrifugation, and suspended in a suspension buffer (100 mM potassium phosphate (pH 7.4), 0.1 mM EDTA, 1 mM DTT, 20% Glycerol). The suspended product was disrupted by a polytron homogenizer (manufactured by Kinematica), and centrifuged at 9000×g for 10 min, and the supernatant was collected. The collected supernatant was cryopreserved (−80° C.) as a human CH24H lysate standard product.
For the measurement of CH24H inhibitory activity, using the human CH24H lysate prepared in Experimental Example 2, the amount of 24-HC produced from cholesterol by catalytic activity of CH24H was measured in the presence of a test compound, and compared with that measured in the absence of the test compound. That is, a test compound solution at various concentrations was mixed with a reaction buffer (50 mM potassium phosphate containing 0.1% BSA and Complete, EDTA-free, pH 7.4) and human CH24H lysate. Then, [^14C] cholesterol (53 mCi/mmol specific activity, 15 μM) was added, and CH24H reaction was performed at 37° C. for 5 hr. After completion of the reaction, a quenching solution consisting of chloroform/methanol/distilled water (2:2:1 v/v) was added, and the resulting 24-HC was extracted by shaking. The extract was applied to silica gel thin layer chromatography (ethyl acetate:toluene=4:6), and the obtained ^14C-24HC fraction was measured with BAS2500 (Fujifilm Corporation).
The inhibitory rate (%) was calculated from the ratio of radioactivity in the presence of a test compound relative to the radioactivity in the absence of the test compound.

T1 sequence (Q9Y6A2 whole entry): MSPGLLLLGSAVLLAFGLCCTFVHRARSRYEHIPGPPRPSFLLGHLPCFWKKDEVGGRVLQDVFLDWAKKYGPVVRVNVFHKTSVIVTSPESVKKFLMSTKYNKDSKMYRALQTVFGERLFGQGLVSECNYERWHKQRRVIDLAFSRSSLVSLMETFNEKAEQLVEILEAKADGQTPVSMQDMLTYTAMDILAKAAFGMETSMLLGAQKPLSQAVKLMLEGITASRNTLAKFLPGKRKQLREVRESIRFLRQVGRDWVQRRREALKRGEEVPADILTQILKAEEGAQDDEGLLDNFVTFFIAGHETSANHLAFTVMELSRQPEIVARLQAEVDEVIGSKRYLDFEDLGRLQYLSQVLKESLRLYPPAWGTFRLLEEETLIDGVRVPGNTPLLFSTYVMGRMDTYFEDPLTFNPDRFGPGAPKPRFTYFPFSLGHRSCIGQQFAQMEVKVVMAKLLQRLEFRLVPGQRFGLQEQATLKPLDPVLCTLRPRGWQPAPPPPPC

Structure (SMILES) | inhibition at 1 µM [%]
Cc1cc(-c2cnco2)c2ncc(C(=O)N3C[C@@H]4C[C@H]3CO4)n2c1 [Example 78, (6-methyl-8-(1,3-oxazol-5-yl)imidazo[1,2-a]pyridin-3-yl)((1S,4S)-2-oxa-5-azabicyclo[2.2.1]hept-5-yl)methanone] | 94
CC(=O)c1cc(-c2cnco2)c2ncc(C(=O)N3C[C@@H]4C[C@H]3CO4)n2c1 [Example 155, 1-(3-((1S,4S)-2-oxa-5-azabicyclo[2.2.1]hept-5-ylcarbonyl)-8-(1,3-oxazol-5-yl)imidazo[1,2-a]pyridin-6-yl)ethanone] | 84
O=C(c1cnc2c(-c3cnco3)cc(C(F)(F)F)cn12)N1CC[C@H](O)C1 [Example 87, ((3S)-3-hydroxypyrrolidin-1-yl)(8-(1,3-oxazol-5-yl)-6-(trifluoromethyl)imidazo[1,2-a]pyridin-3-yl)methanone] | 94
O=C(c1cnc2c(-c3cnco3)cc(C(F)(F)F)cn12)N1C2COCC1COC2 [Example 176, 3,7-dioxa-9-azabicyclo[3.3.1]non-9-yl(8-(1,3-oxazol-5-yl)-6-(trifluoromethyl)imidazo[1,2-a]pyridin-3-yl)methanone] | 94
O=C(Nc1ccccc1)c1cnc2c(-c3cnco3)cc(C(F)(F)F)cn12 [Example 74, 8-(1,3-oxazol-5-yl)-N-phenyl-6-(trifluoromethyl)imidazo[1,2-a]pyridine-3-carboxamide] | 96
O=C(c1cnc2c(-c3cnco3)cc(C(F)(F)F)cn12)N1C[C@@H]2C[C@H]1CO2 [Example 71, (1S,4S)-2-oxa-5-azabicyclo[2.2.1]hept-5-yl(8-(1,3-oxazol-5-yl)-6-(trifluoromethyl)imidazo[1,2-a]pyridin-3-yl)methanone] | 88
O=C(c1cnc2c(-n3cncn3)cc(C(F)(F)F)cn12)N1C[C@@H]2C[C@H]1CO2 [Example 128, (1S,4S)-2-oxa-5-azabicyclo[2.2.1]hept-5-yl(8-(1H-1,2,4-triazol-1-yl)-6-(trifluoromethyl)imidazo[1,2-a]pyridin-3-yl)methanone] | 86
O=C(NC1CCOCC1)c1cnc2c(-c3cnco3)cc(C(F)(F)F)cn12 [Example 44, 8-(1,3-oxazol-5-yl)-N-(tetrahydro-2H-pyran-4-yl)-6-(trifluoromethyl)imidazo[1,2-a]pyridine-3-carboxamide] | 93
O=C(c1cnc2c(-c3cnco3)cc(F)cn12)N1C2CCC1COC2 [Example 138, (6-fluoro-8-(1,3-oxazol-5-yl)imidazo[1,2-a]pyridin-3-yl)(3-oxa-8-azabicyclo[3.2.1]oct-8-yl)methanone] | 82
O=C(c1cnc2c(-c3cnco3)cc(-c3cnco3)cn12)N1C[C@@H]2C[C@H]1CO2 [Example 93, (6,8-di(1,3-oxazol-5-yl)imidazo[1,2-a]pyridin-3-yl)((1S,4S)-2-oxa-5-azabicyclo[2.2.1]hept-5-yl)methanone] | 68
N#C[C@H]1CCCN1C(=O)c1cnc2c(-c3cnco3)cc(C(F)(F)F)cn12 [Example 175, (2R)-1-((8-(1,3-oxazol-5-yl)-6-(trifluoromethyl)imidazo[1,2-a]pyridin-3-yl)carbonyl)pyrrolidine-2-carbonitrile] | 80
CCNC(=O)c1c(C)nc2c(-c3cnco3)cc(C(F)(F)F)cn12 [Example 98, N-ethyl-2-methyl-8-(1,3-oxazol-5-yl)-6-(trifluoromethyl)imidazo[1,2-a]pyridine-3-carboxamide] | 69
O=C(c1cnc2c(-c3cnco3)cc(C3CC3)cn12)N1C[C@@H]2C[C@H]1CO2 [Example 116, (6-cyclopropyl-8-(1,3-oxazol-5-yl)imidazo[1,2-a]pyridin-3-yl)((1S,4S)-2-oxa-5-azabicyclo[2.2.1]hept-5-yl)methanone] | 90
O=C(c1cnc2c(-n3cncn3)cc(C(F)(F)F)cn12)N1C2CCC1COC2 [Example 142, 3-oxa-8-azabicyclo[3.2.1]oct-8-yl(8-(1H-1,2,4-triazol-1-yl)-6-(trifluoromethyl)imidazo[1,2-a]pyridin-3-yl)methanone] | 87
O=C(C1CC1)n1ccc2c(-c3cnco3)cc(C(F)(F)F)cc21 [Example 4, cyclopropyl(4-(1,3-oxazol-5-yl)-6-(trifluoromethyl)-1H-indol-1-yl)methanone] | 88
CCOC(=O)c1cnc2c(-c3cnco3)cc(C(F)(F)F)cn12 [Example 1, ethyl 8-(1,3-oxazol-5-yl)-6-(trifluoromethyl)imidazo[1,2-a]pyridine-3-carboxylate] | 86
O=C(c1cnc2c(-c3cnco3)cc(C(F)(F)F)cn12)N1C2COCC1C2 [Example 86, 3-oxa-6-azabicyclo[3.1.1]hept-6-yl(8-(1,3-oxazol-5-yl)-6-(trifluoromethyl)imidazo[1,2-a]pyridin-3-yl)methanone] | 95
O=C(c1cnc2c(-c3cnco3)cc(C3CC3)cn12)N1C2CCC1COC2 [Example 143, (6-cyclopropyl-8-(1,3-oxazol-5-yl)imidazo[1,2-a]pyridin-3-yl)(3-oxa-8-azabicyclo[3.2.1]oct-8-yl)methanone] | 91
O=C(c1cnc2c(-c3cnco3)cc(C(F)(F)F)cn12)N1CC(F)C1 [Example 177, (3-fluoroazetidin-1-yl)(8-(1,3-oxazol-5-yl)-6-(trifluoromethyl)imidazo[1,2-a]pyridin-3-yl)methanone] | 86
O=C(c1cnc2c(-c3cnco3)cc(C(F)(F)F)cn12)N1CC2(COC2)C1 [Example 22, 2-oxa-6-azaspiro[3.3]hept-6-yl(8-(1,3-oxazol-5-yl)-6-(trifluoromethyl)imidazo[1,2-a]pyridin-3-yl)methanone] | 93
O=C(c1cnc2c(-c3cnco3)cc(C(F)(F)F)cn12)N1CCOCC1 [Example 16, morpholin-4-yl(8-(1,3-oxazol-5-yl)-6-(trifluoromethyl)imidazo[1,2-a]pyridin-3-yl)methanone] | 87
O=C(c1cnc2c(-c3cnco3)cc(C(F)F)cn12)N1C[C@@H]2C[C@H]1CO2 [Example 171, (6-(difluoromethyl)-8-(1,3-oxazol-5-yl)imidazo[1,2-a]pyridin-3-yl)((1S,4S)-2-oxa-5-azabicyclo[2.2.1]hept-5-yl)methanone] | 91
O=C(c1cnc2c(-c3cnco3)cc(C(F)(F)F)cn12)N1CCCC1 [Example 2, (8-(1,3-oxazol-5-yl)-6-(trifluoromethyl)imidazo[1,2-a]pyridin-3-yl)(pyrrolidin-1-yl)methanone] | 89
O=C(c1cnc2c(-c3cnco3)cc(Cl)cn12)N1C[C@@H]2C[C@H]1CO2 [Example 92, (6-chloro-8-(1,3-oxazole-5-yl)imidazo[1,2-a]pyridin-3-yl)((1S,4S)-2-oxa-5-azabicyclo[2.2.1]hept-5-yl)methanone] | 86
CN(C(=O)c1cnc2c(-c3cnco3)cc(C(F)(F)F)cn12)C1CCOCC1 [Example 47, N-methyl-8-(1,3-oxazol-5-yl)-N-(tetrahydro-2H-pyran-4-yl)-6-(trifluoromethyl)imidazo[1,2-a]pyridine-3-carboxamide] | 92
O=C(c1cnc2c(-c3cnco3)cc(C(F)(F)F)cn12)N1CC(F)(F)C1 [Example 21, (3,3-difluoroazetidin-1-yl)(8-(1,3-oxazol-5-yl)-6-(trifluoromethyl)imidazo[1,2-a]pyridin-3-yl)methanone] | 99
O=C(c1cnc2c(-n3cncn3)cc(C(F)(F)F)cn12)N1C2COCC1C2 [Example 156, 3-oxa-6-azabicyclo[3.1.1]hept-6-yl(8-(1H-1,2,4-triazol-1-yl)-6-(trifluoromethyl)imidazo[1,2-a]pyridin-3-yl)methanone] | 94
O=C(c1cnc2c(-c3cn[nH]c3)cc(C(F)(F)F)cn12)N1C[C@@H]2C[C@H]1CO2 [Example 134, (1S,4S)-2-oxa-5-azabicyclo[2.2.1]hept-5-yl(8-(1H-pyrazol-4-yl)-6-(trifluoromethyl)imidazo[1,2-a]pyridin-3-yl)methanone] | 71
Cc1cc(-c2cnco2)n2ncc(C(=O)N3C[C@@H]4C[C@H]3CO4)c2c1 [Example 126, (5-methyl-7-(1,3-oxazol-5-yl)pyrazolo[1,5-a]pyridin-3-yl)((1S,4S)-2-oxa-5-azabicyclo[2.2.1]hept-5-yl)methanone] | 93
O=C(NCc1ccccc1)c1nnc2c(-c3cnco3)cc(C(F)(F)F)cn12 [Example 107, N-benzyl-8-(1,3-oxazol-5-yl)-6-(trifluoromethyl)[1,2,4]triazolo[4,3-a]pyridine-3-carboxamide] | 89

Reference: US9296746B2, “Heterocyclic compound” (TAKEDA PHARMACEUTICAL COMPANY LIMITED, priority 2012, dated 2016)
